“And” between values parts separate entries of the source, which are not always exact repeats. Identical values can stand only once.
How the values were obtained:
[1] = whole-blood pharmacokinetics in SD rats; assay type: in vivo
[2] = test system: PC9 cells; assay: cells; assay type: cell-based, human; conditions: Homo sapiens, PC-9, 72 h
[3] = test system: H1975 xenograft; assay: H1975 xenograft in nude mice; assay type: in vivo; conditions: i.v., BO-1978 40 mg/kg, gefitinib 10 mg/kg, daily for 5 consecutive days
[4] = test system: H1650-Luc cells; assay: orthotopic lung tumor model, IVIS; assay type: in vivo, nude mice; conditions: BO-1978 40 mg/kg, gefitinib 10 mg/kg, daily for 5 consecutive days
[5] = stability in culture medium; assay type: physicochemical
[6] = complete blood count and blood chemistry test in ICR mice; assay type: in vivo; conditions: 40 mg/kg i.v.
[7] = test system: H1650 cells; assay: cells; assay type: cell-based, human; conditions: Homo sapiens, NCI-H1650, 72 h
[8] = acute toxicity LD50 in ICR mice; conditions: male, mouse, in vivo
[9] = test system: H460 cells; assay: modified comet assay of DNA ICLs; assay type: cell-based, human; conditions: 1, 5, and 10 μM, 2 hours
[10] = test system: MES-SA/dx5; assay: cytotoxicity in multiple drug-resistant and cisplatin-resistant cells; assay type: cell-based; conditions: for IC50: Homo sapiens, MES-SA/Dx5; for resistance factor: MES-SA/dx5 vs MES-SA
[11] = stability in rat plasma; assay type: in vitro ADME
[12] = test system: PC9/gef B4 cells; assay: cells; assay type: cell-based, human
[13] = test system: MES-SA; assay: cytotoxicity in multiple drug-resistant and cisplatin-resistant cells; assay type: cell-based; conditions: Homo sapiens
[14] = test system: H1975 cells; assay: cells; assay type: cell-based, human; conditions: Homo sapiens, NCI-H1975, 72 h
[15] = test system: CCRF-CEM; assay: cytotoxicity in multiple drug-resistant and cisplatin-resistant cells; assay type: cell-based; conditions: Homo sapiens
[16] = test system: pEGFP-N1 plasmid DNA; assay: alkaline gel shift assay of DNA cross-linking; assay type: biochemical; conditions: 0.125 to 2 μM, 2 hours, 37°C
[17] = test system: PC9 xenograft; assay: PC9 xenograft in nude mice; assay type: in vivo; conditions: i.v., BO-1978 40 mg/kg, gefitinib 10 mg/kg, daily for 5 consecutive days
[18] = test system: KB; assay: cytotoxicity in multiple drug-resistant and cisplatin-resistant cells; assay type: cell-based; conditions: Homo sapiens
[19] = test system: γH2AX, DNA-PK, and Rad51; assay: Western blot of DNA damage response; assay type: cell-based, human; conditions: H460 cells, 1 to 4 μM, 24 hours
[20] = test system: H1299 cells; assay: cells; assay type: cell-based, human; conditions: Homo sapiens, NCI-H1299, 72 h
[21] = tissue distribution in SD rats; assay type: in vivo; conditions: 30 minutes after administration, 10 mg/kg, n = 6
[22] = test system: KB/vin10; assay: cytotoxicity in multiple drug-resistant and cisplatin-resistant cells; assay type: cell-based; conditions: for IC50: Homo sapiens, KB-VIN10; for resistance factor: KB/vin10 vs KB
[23] = test system: A549 cells; assay: cells; assay type: cell-based, human; conditions: Homo sapiens, A549, 72 h
[24] = test system: NTUB1; assay: cytotoxicity in multiple drug-resistant and cisplatin-resistant cells; assay type: cell-based
[25] = histopathological examination of major organs in ICR mice; assay type: in vivo; conditions: 40 mg/kg i.v., days 2 and 14, histopathology and blood tests
[26] = test system: H460 cells; assay: cells; assay type: cell-based, human; conditions: Homo sapiens, NCI-H460, 72 h
[27] = test system: topo II; assay: topo II activity assay with nuclear extracts of treated H460 cells; assay type: cell-based, human; conditions: H460 cells treated 72 hours, nuclear extract, plasmid relaxation
[28] = test system: CL1-5 cells; assay: alamarBlue in vitro cytotoxicity assay; assay type: cell-based, human; conditions: Homo sapiens, CL1-5, 72 h
[29] = target: topo I (Homo sapiens, UniProt P11387); assay: topo I activity assay with nuclear extracts of treated H460 cells; assay type: cell-based; conditions: H460 cells treated 72 hours, nuclear extract, plasmid relaxation
Sequence of topo I (P11387 whole entry): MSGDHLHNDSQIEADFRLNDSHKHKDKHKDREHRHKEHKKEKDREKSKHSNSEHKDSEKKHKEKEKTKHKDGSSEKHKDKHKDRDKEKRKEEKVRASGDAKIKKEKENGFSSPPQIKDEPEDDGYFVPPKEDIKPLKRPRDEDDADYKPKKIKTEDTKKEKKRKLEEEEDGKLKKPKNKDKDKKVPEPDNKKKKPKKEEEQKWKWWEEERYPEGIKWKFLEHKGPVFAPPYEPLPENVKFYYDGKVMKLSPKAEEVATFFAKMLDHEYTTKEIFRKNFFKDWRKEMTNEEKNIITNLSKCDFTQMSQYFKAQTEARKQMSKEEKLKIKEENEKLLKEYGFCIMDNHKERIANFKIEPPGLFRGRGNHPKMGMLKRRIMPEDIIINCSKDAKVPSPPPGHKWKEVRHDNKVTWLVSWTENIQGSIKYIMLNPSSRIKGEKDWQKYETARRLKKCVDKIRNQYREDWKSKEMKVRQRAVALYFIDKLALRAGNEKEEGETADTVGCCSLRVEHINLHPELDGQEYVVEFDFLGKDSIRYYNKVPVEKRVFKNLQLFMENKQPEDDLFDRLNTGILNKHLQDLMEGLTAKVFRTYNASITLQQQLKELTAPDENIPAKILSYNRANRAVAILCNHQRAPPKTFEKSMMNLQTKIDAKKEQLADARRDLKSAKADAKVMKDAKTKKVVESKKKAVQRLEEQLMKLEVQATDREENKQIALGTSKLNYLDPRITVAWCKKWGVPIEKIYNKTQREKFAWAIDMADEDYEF

[30] = test system: CL100 cells; assay: cells; assay type: cell-based, human; conditions: Homo sapiens, 72 h
[31] = test system: H460 cells; assay: cell cycle analysis by flow cytometry; assay type: cell-based, human; conditions: 1 to 4 μM, 24 to 72 hours
[32] = test system: CL97 cells; assay: cells; assay type: cell-based, human; conditions: Homo sapiens, CL97, 72 h
[33] = test system: H460 xenograft; assay: H460 xenograft in nude mice; assay type: in vivo
[34] = test system: NTUB1/P; assay: cytotoxicity in multiple drug-resistant and cisplatin-resistant cells; assay type: cell-based
[35] = test system: CCRF/VBL; assay: as above; assay type: cell-based
[36] = test system: CL141T cells; assay: cells; assay type: cell-based, human; conditions: Homo sapiens, 72 h
[37] = test system: caspases 3 and 7; assay: Western blot of apoptotic executor proteins; assay type: cell-based, human; conditions: H460 cells
[38] = test system: H1650 xenograft; assay: H1650 xenograft in nude mice; assay type: in vivo; conditions: i.v., BO-1978 40 mg/kg, gefitinib 10 mg/kg, daily for 5 consecutive days
[39] = test system: 11 NSCLC cell lines; assay: cytotoxicity against batch of 11 NSCLC cell lines; assay type: cell-based; conditions: Homo sapiens, read-out: IC50 values against NSCLC cells (range)
[40] = test system: PC9/gef B4 xenograft; assay: PC9/gef B4 xenograft in nude mice; assay type: in vivo; conditions: i.v., BO-1978 40 mg/kg, gefitinib 10 mg/kg, daily for 5 consecutive days
[41] = male, SD, rat, whole blood, iv, 10 mg/kg

Which results are given for `CCc1c(CO)c(CO)c2n1Cc1c(c3ccccc3n1C)C2` [BO-1978, [3-ethyl-6-methyl-6,11-dihydro-5H-indolizino[6,7-b]indole-1,2-diyl]dimethanol]?
systemic clearance as share of cardiac output of rats ([1]; cardiac output approximately 296 ml/min per kg): approximately 19%; systemic clearance ([1]; male SD rats, single i.v. 10 mg/kg): 56.24 ± 14.90 ml/min per kg; AUC(0-t) [1, 41]: 3140 ng·h/mL; C0 [1, 41]: 8630 ng/mL and 27.8 µM; MRT [1, 41]: 0.456 h; half-life [1, 41]: 0.392 ± 0.118 h; IC50 [2]: 1410 ± 370 nM; suppression of xenograft tumor growth [3]: 26%; orthotopic growth of H1650-Luc cells [4]: effectively suppressed; half-life [5]: 36.8 ± 2.19 h; ALP ([6]; 14 Days): 233.50 ± 36.74 U/l; ALT ([6]; 14 Days): 44.87 ± 19.72 U/l; AST ([6]; 14 Days): 86.14 ± 25.25 U/l; BASO ([6]; 14 Days): 0.09 ± 0.03 10^9/l; BUN ([6]; 14 Days): 23.95 ± 1.71 mg/dL; CRE ([6]; 14 Days): 0.17 ± 0.05 mg/dL; EOS ([6]; 14 Days): 0.12 ± 0.13 10^9/l; HCT ([6]; 14 Days): 44.02 ± 1.18%; HGB ([6]; 14 Days): 12.78 ± 0.42 g/dL; LYM ([6]; 14 Days): 2.86 ± 0.88 10^9/l; MCH ([6]; 14 Days): 16.38 ± 0.52 pg; MCHC ([6]; 14 Days): 29.05 ± 0.46 g/dL; MCV ([6]; 14 Days): 56.40 ± 1.69 fL; MONO ([6]; 14 Days): 0.11 ± 0.09 10^9/l; NEU ([6]; 14 Days): 0.82 ± 0.47 10^9/l; PLT ([6]; 14 Days): 958.00 ± 178.31 10^9/l; RBC ([6]; 14 Days): 7.81 ± 0.33 10^12/l; WBC ([6]; 14 Days): 4.00 ± 0.97 10^9/l; ALP ([6]; 48 Hours): 297.50 ± 72.11 U/l; ALT ([6]; 48 Hours): 156.25 ± 236.88 U/l; AST ([6]; 48 Hours): 220.27 ± 153.45 U/l; BASO ([6]; 48 Hours): 0.06 ± 0.03 10^9/l; BUN ([6]; 48 Hours): 19.48 ± 2.03 mg/dL; CRE ([6]; 48 Hours): 0.18 ± 0.15 mg/dL; EOS ([6]; 48 Hours): 0.05 ± 0.04 10^9/l; HCT ([6]; 48 Hours): 41.13 ± 1.95%; HGB ([6]; 48 Hours): 11.96 ± 0.53 g/dL; LYM ([6]; 48 Hours): 1.83 ± 1.17 10^9/l; MCH ([6]; 48 Hours): 16.75 ± 0.45 pg; MCHC ([6]; 48 Hours): 29.07 ± 0.40 g/dL; MCV ([6]; 48 Hours): 57.61 ± 1.27 fL; MONO ([6]; 48 Hours): 0.05 ± 0.04 10^9/l; NEU ([6]; 48 Hours): 0.45 ± 0.21 10^9/l; PLT ([6]; 48 Hours): 786.10 ± 90.60 10^9/l; RBC ([6]; 48 Hours): 7.14 ± 0.38 10^12/l; WBC ([6]; 48 Hours): 2.43 ± 1.19 10^9/l; IC50 [7]: 3500 ± 100 nM; LD50 [8]: 93.7 mg/kg; tail moment in X-ray irradiated H460 cells (DNA ICLs) [9]: dose-dependently induced shortened tail moments; IC50 [10]: 470 ± 120 nM; resistance factor [10]: 0.61 x; half-life [11]: 89.4 ± 5.62 h; IC50 ([12]; Homo sapiens, 72 h): 1580 ± 330 nM; resistance factor of PC9/gef B4 to PC9 cells ([12]; IC50 ratio, number in brackets): 1.12; IC50 [13]: 770 ± 80 nM; IC50 [14]: 2340 ± 180 nM; IC50 [15]: 460 ± 120 nM; formation of DNA ICLs in plasmid DNA [16]: formed DNA ICLs; suppression of xenograft tumor growth [17]: 55%; IC50 [18]: 1960 ± 390 nM; expression of γH2AX, DNA-PK, and Rad51 [19]: dose-dependently increased the expression levels; IC50 [20]: 3020 ± 650 nM; concentration in Blood [21]: 1.59 ± 0.48 μg/ml or μg/g; concentration in Brain [21]: 3.97 ± 0.96 μg/ml or μg/g; concentration in Heart [21]: 1.79 ± 0.72 μg/ml or μg/g; concentration in Kidney [21]: 2.19 ± 0.12 μg/ml or μg/g; concentration in Liver [21]: 10.71 ± 1.96 μg/ml or μg/g; concentration in Lung [21]: 3.13 ± 1.44 μg/ml or μg/g; concentration in Spleen [21]: 0.48 ± 0.08 μg/ml or μg/g; IC50 [22]: 1560 ± 510 nM; resistance factor [22]: 0.79 x; IC50 [23]: 3150 ± 1200 nM; IC50 [24]: 1140 ± 320 nM; toxic effects in the major organs [25]: did not cause apparent toxic effects in the major organs except for slight and recoverable liver damage; IC50 [26]: 1060 ± 110 nM; concentration at which topo II activity was significantly inhibited [27]: greater than 0.5 μM; IC50 [28]: 1470 ± 530 nM; concentration at which topo I activity was significantly inhibited [29]: greater than 0.5 μM; IC50 [30]: 1510 ± 300 nM; cell cycle interference [31]: S phase delay at 24 hours and then G2 arrest at 72 hours; IC50 [32]: 1250 ± 180 nM; body weight loss ([33]; H460 xenograft mice, BO-1978 40 mg/kg QDx5, cisplatin 6 mg/kg every 4 days x3): negligible; H460 xenograft tumor size suppressed/reduced to ([33]; i.v., BO-1978 40 mg/kg QDx5, cisplatin 6 mg/kg every 4 days x3): approximately 65%; maximal tolerant dose ([33]; nude mice, i.v., given for 5 consecutive days (QDx5)): 40 mg/kg; IC50 ([34]; NTUB1): 1920 ± 390 nM; resistance factor ([34]; NTUB1/P vs NTUB1): 1.68 x; IC50 [35]: 410 ± 30 nM; IC50 [36]: 1320 ± 470 nM; cleavage of caspases 3 and 7 [37]: dose- and time-dependently induced cleavage of caspases 3 and 7; suppression of xenograft tumor growth [38]: 30%; IC50 [39]: 1060 to 3500 nM; suppression of xenograft tumor growth [40]: 73%

For `COc1cccc2c1C(=O)c1c(O)c3c(c(O)c1C2=O)C[C@@](O)(C(=O)CO)C[C@@H]3O[C@H]1C[C@H](N)[C@H](O)[C@H](C)O1` [Doxorubicin], which IC50 [10] is on record?
Its IC50 is 2300 ± 980 nM.

What about the resistance factor [10] of the same molecule?
Its resistance factor is 60.52 x.

And the IC50 [13]?
Its IC50 is 38 ± 3 nM.

With `CC[C@]1(O)C[C@H]2CN(CCc3c([nH]c4ccccc34)[C@@](C(=O)OC)(c3cc4c(cc3OC)N(C=O)[C@H]3[C@@](O)(C(=O)OC)[C@H](OC(C)=O)[C@]5(CC)C=CCN6CC[C@]43[C@@H]65)C2)C1` [Vincristine, reference compound] as the molecule, how does the IC50 [15] read?
The IC50 was 2.23 ± 0.19 nM.

And the IC50 [18]?
Its IC50 is 2.16 ± 0.25 nM.

What about the IC50 [22] of the same molecule?
The IC50 was 510 ± 170 nM.

What about the resistance factor [22] of the same molecule?
The resistance factor was 236.1 x.

And the IC50 [35]?
The IC50 was 2130 ± 249 nM.

What about the resistance factor ([35]; CCRF/VBL vs CCRF-CEM) of the same molecule?
Its resistance factor is 954.3 x.

For `CCc1c2c(nc3ccc(OC(=O)N4CCC(N5CCCCC5)CC4)cc13)-c1cc3c(c(=O)n1C2)COC(=O)[C@]3(O)CC` [Irinotecan], which IC50 [2] is on record?
Its IC50 is 11200 ± 1970 nM.

And the IC50 [7]?
Its IC50 is 17000 ± 4200 nM.

What about the IC50 [14] of the same molecule?
Its IC50 is 36800 ± 14400 nM.

And the IC50 [20]?
Its IC50 is 24500 ± 1850 nM.

And the IC50 [23]?
Its IC50 is 9290 ± 3310 nM.

And the IC50 [26]?
The IC50 was 4180 ± 1290 nM.

Source: PMC4840272 (Neoplasia (New York, N.Y.), 2016)
